The nature of this experiment: Curcumin administration test (A) in HFD-challenged mice: plasma TCHO, CM, LDL (Test Example 11). The experiment is classed as in vivo, mice (C57BL/6). To be noted: HFD-challenged C57BL/6 mice, ad libitum drinking of aqueous liquid for 12 weeks. The protocol: In this test, total cholesterol (TCHO), chylomicron (CM), and LDL cholesterol (LDL) were measured. […] After the feeding period, blood was sampled and centrifuged at […] at 4° C. for 15 minutes to obtain plasma. The plasma was measured by a Fuji Dri-Chem 4000V biochemical automatic analyzer (Fujifilm, Tokyo, Japan).

As to `CC(C)(Oc1ccc(CCNC(=O)c2ccc(Cl)cc2)cc1)C(=O)O` [Bezafibrate], the “CM (chylomicron) in plasma” value was determined as 0.53 mg/dL, the “LDL (LDL cholesterol) in plasma” value was 17.9 mg/dL and the “TCHO (total cholesterol) in plasma” value turned out to be 125.0 mg/dL.

The values are drawn from patent US20200009211A1, “CURCUMIN-CONTAINING MEDICINAL PREPARATION” (SAN-EI GEN F.F.I., INC., priority 2017, published 2020).
